# Test results as given in patent publication US20250376461A1, “INDAZOLE DERIVATIVES FOR TREATING TRPM3-MEDIATED DISORDERS” (Katholieke Universiteit Leuven, priority 2022, published 2025).
# Target: T1, mouse TRPM3α2 (mTRPM3) ion channel (Mus musculus, UniProt J9SQF3)
# T1 construct: expressed in transfected cells; host or cells: flip-in HEK293
# Test: TRPM3 ion channel driven Ca2+ uptake, Fluo-4 AM assay, mTRPM3alpha2 overexpressing flip-in HEK293 cells stimulated with pregnenolone sulfate (50 μM)
# Type: cell-based
# Settings: mTRPM3 overexpressing HEK293 cells stimulated with pregnenolone sulfate (50 μM), activity ranges A, B, C
# Protocol: Monitoring the TRPM3 Ion Channel Driven Ca2+ Uptake.
# In order to monitor the inhibition of the mouse TRPM3α2 (mTRPM3) ion channel by the compounds of the invention, a cellular system making use of an mTRPM3alpha2 or hTRPM3 overexpressing cell line (flip-in HEK293) was used. The TRPM3 channel was stimulated/opened with Pregnenolone sulfate (PS) (50 μM) which results in Ca^2+ influx.
# For mTRPM3, the intracellular Ca^2+ was measured with a Calcium responsive dye, Fluor-4 AM ester (Invitrogen). Cells were cultured until a confluence of 80-90%, washed with Versene (Invitrogen) and detached from the surface by a short incubation with 0.05% Trypsin (Invitrogen). The trypsination process was stopped by the addition of complete cell culture medium (DMEM, glutamax, 10% FCS, NEAA, Pen-Strep). Cells were collected and resuspended in Krebs buffer without Calcium at RT.
# Prior the cell seeding (±2000 cells/well into a black, 384 well plate (Greiner)) the diluted compound was added in the assay plate, together with the PS dissolved in Krebs buffer containing Calcium. […] Directly after cell addition the plates were read on an Envision fluorescence reader (Perkin Elmer) by an Excitation of 485 nm and emission at 535 nm.
# Channel inhibition was calculated compared to a non-PS stimulated control versus a condition stimulated with PS (50 μM) with vehicle. The ability of the compounds of the invention to inhibit this activity was determined as: Percentage inhibition=[1−((RFU determined for sample with test compound present−RFU determined for sample with positive control inhibitor) divided by (RFU determined in the presence of vehicle−RFU determined for sample with positive control inhibitor))]*100.
# The activities of the Example compounds cpd 001-262 tested are depicted in the table below. All tested compounds show an activity in the Fluo-4 AM assay. The activity ranges A, B and C refer to IC50 values in the Fluo-4 AM assay as follows: “A”: IC50<1 μM; “B”: 1 μM≤IC50≤20 μM and “C”: IC50>20 μM.
# T1 sequence (J9SQF3 1-1709 isoform J9SQF3-12): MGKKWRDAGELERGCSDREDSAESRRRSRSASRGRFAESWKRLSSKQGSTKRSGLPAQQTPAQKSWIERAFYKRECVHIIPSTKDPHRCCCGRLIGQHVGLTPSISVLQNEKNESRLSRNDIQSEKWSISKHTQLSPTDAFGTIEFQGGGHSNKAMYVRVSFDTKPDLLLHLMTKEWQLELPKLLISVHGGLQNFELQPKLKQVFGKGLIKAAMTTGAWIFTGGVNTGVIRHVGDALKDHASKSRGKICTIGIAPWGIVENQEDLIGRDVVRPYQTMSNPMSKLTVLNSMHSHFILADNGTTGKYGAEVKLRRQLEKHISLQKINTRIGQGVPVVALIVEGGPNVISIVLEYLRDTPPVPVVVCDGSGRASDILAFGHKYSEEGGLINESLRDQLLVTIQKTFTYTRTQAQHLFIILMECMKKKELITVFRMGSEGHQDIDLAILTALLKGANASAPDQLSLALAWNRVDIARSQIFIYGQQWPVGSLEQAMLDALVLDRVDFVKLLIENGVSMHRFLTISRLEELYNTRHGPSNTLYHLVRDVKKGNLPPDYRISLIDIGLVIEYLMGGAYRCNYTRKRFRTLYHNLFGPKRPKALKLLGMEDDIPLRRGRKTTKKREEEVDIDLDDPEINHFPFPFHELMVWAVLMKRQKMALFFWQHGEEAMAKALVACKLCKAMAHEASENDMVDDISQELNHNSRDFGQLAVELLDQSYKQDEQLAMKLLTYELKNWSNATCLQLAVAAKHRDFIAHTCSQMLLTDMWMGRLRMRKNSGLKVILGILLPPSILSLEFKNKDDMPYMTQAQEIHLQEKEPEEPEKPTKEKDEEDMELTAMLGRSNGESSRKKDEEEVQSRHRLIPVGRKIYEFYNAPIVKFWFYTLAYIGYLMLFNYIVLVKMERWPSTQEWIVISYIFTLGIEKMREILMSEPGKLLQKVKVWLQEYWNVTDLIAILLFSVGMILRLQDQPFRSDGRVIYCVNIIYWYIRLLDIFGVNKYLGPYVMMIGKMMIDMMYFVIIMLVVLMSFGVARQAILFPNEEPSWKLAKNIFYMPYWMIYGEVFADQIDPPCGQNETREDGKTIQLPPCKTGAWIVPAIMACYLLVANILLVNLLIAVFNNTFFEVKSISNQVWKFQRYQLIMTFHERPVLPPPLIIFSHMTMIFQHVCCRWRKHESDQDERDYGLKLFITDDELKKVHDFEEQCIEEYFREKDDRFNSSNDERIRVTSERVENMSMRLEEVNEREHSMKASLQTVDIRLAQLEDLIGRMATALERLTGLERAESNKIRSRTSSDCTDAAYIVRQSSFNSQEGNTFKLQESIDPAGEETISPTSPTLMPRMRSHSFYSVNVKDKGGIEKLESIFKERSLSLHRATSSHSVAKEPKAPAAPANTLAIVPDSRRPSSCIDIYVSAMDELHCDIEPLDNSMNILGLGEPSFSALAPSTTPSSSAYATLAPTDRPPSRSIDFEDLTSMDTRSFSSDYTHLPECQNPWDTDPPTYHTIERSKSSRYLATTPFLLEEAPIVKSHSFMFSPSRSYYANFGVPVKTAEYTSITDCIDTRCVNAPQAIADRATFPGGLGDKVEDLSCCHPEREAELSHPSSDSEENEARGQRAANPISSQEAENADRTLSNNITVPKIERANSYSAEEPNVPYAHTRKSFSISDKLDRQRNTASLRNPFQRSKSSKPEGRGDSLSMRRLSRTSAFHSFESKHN
row,Compound,IC50 [µM]
1,"CN(C)C(=O)C(C)(CO)NC(=O)c1c2cc(OCc3cccnc3C(F)(F)F)ccc2nn1C (single isomer, unassigned) [Cpd 193 - En2, 3-hydroxy-N,N,2-trimethyl-2-[(2-methyl-5-{[2-(trifluoromethyl)pyridin-3-yl]methoxy}-2H-indazol-3-yl)formamido]propanamide]",> 20
2,"Cn1nc2ccc(OCc3ccccc3F)cc2c1C(=O)NC(C)(CO)C(N)=O (single isomer, unassigned) [Cpd 194 - En1]",< 1
3,"Cn1nc2ccc(OCc3ccccc3F)cc2c1C(=O)NC(C)(CO)C(N)=O (single isomer, unassigned) [Cpd 194 - En2]",< 1
4,"Cc1ncc(COc2ccc3nn(C(C)C)c(C(=O)NC(C)(CO)C(N)=O)c3c2)s1 (single isomer, unassigned) [Cpd 195 - En1]",> 20
5,"Cc1ncc(COc2ccc3nn(C(C)C)c(C(=O)NC(C)(CO)C(N)=O)c3c2)s1 (single isomer, unassigned) [Cpd 195 - En2]",< 1
6,"Cn1nc2ccc(OCc3ccccn3)cc2c1C(=O)NC(C)(CO)CC(F)F (single isomer, unassigned) [Cpd 201 - En1, N-(4,4-difluoro-1-hydroxy-2-methylbutan-2-yl)-2-methyl-5-[(pyridin-2-yl)methoxy]-2H-indazole-3-carboxamide]",< 1
7,"Cn1nc2ccc(OCc3ccccn3)cc2c1C(=O)NC(C)(CO)CC(F)F (single isomer, unassigned) [Cpd 201 - En2, N-(4,4-difluoro-1-hydroxy-2-methylbutan-2-yl)-2-methyl-5-[(pyridin-2-yl)methoxy]-2H-indazole-3-carboxamide]",< 1
8,"Cn1nc2ccc(OCc3cccnc3C(F)(F)F)cc2c1C(=O)NC(C)(CO)CC(F)F (single isomer, unassigned) [Cpd 202 - En1]",< 1
9,"Cn1nc2ccc(OCc3cccnc3C(F)(F)F)cc2c1C(=O)NC(C)(CO)CC(F)F (single isomer, unassigned) [Cpd 202 - En2]",< 1
10,"Cn1nc2ccc(OCc3ccccc3F)cc2c1C(=O)NC(C)(CO)CC(F)F (single isomer, unassigned) [Cpd 203 - En1]",< 1
11,"Cn1nc2ccc(OCc3ccccc3F)cc2c1C(=O)NC(C)(CO)CC(F)F (single isomer, unassigned) [Cpd 203 - En2]",< 1
12,"Cc1ncsc1COc1ccc2nn(C)c(C(=O)NC3CNCCC3(F)F)c2c1 (single isomer, unassigned) [Cpd 211 - En1, N-(4,4-difluoropiperidin-3-yl)-2-methyl-5-[(4-methyl-1,3-thiazol-5-yl)methoxy]-2H-indazole-3-carboxamide]",1 to 20
13,"Cc1ncsc1COc1ccc2nn(C)c(C(=O)NC3CNCCC3(F)F)c2c1 (single isomer, unassigned) [Cpd 211 - En2, N-(4,4-difluoropiperidin-3-yl)-2-methyl-5-[(4-methyl-1,3-thiazol-5-yl)methoxy]-2H-indazole-3-carboxamide]",< 1
14,"Cn1nc2ccc(OCc3ccccn3)cc2c1C(=O)NC1CNCCC1(F)F (single isomer, unassigned) [Cpd 212 - En1, N-(4,4-difluoropiperidin-3-yl)-2-methyl-5-[(pyridin-2-yl)methoxy]-2H-indazole-3-carboxamide]",1 to 20
15,"Cn1nc2ccc(OCc3ccccn3)cc2c1C(=O)NC1CNCCC1(F)F (single isomer, unassigned) [Cpd 212 - En2, N-(4,4-difluoropiperidin-3-yl)-2-methyl-5-[(pyridin-2-yl)methoxy]-2H-indazole-3-carboxamide]",> 20
16,"Cc1ncsc1COc1ccc2nn(C)c(C(=O)NC3CNCC(F)(F)C3)c2c1 (single isomer, unassigned) [Cpd 213 - En1]",1 to 20
17,"Cc1ncsc1COc1ccc2nn(C)c(C(=O)NC3CNCC(F)(F)C3)c2c1 (single isomer, unassigned) [Cpd 213 - En2]",> 20
18,"Cn1nc2ccc(OCc3ccccn3)cc2c1C(=O)NC1CNCC(F)(F)C1 (single isomer, unassigned) [Cpd 214 - En1]",> 20
19,"Cn1nc2ccc(OCc3ccccn3)cc2c1C(=O)NC1CNCC(F)(F)C1 (single isomer, unassigned) [Cpd 214 - En2]",1 to 20
20,"Cc1ncsc1COc1ccc2nn(C)c(C(=O)NC3CCNC3)c2c1 (single isomer, unassigned) [Cpd 215 - En1]",> 20
21,"Cc1ncsc1COc1ccc2nn(C)c(C(=O)NC3CCNC3)c2c1 (single isomer, unassigned) [Cpd 215 - En2]",1 to 20
22,"Cn1nc2ccc(OCc3ccccn3)cc2c1C(=O)NC1CCNC1 (single isomer, unassigned) [Cpd 216 - En1]",> 20
23,"Cn1nc2ccc(OCc3ccccn3)cc2c1C(=O)NC1CCNC1 (single isomer, unassigned) [Cpd 216 - En2]",1 to 20
24,"Cn1nc2ccc(OCc3ccccn3)cc2c1C(=O)NC(CO)c1ccc(F)cc1 (single isomer, unassigned) [Cpd 220 - En1]",> 20
25,"Cn1nc2ccc(OCc3ccccn3)cc2c1C(=O)NC(CO)c1ccc(F)cc1 (single isomer, unassigned) [Cpd 220 - En2]",> 20

# Results, then the molecule that gave them:
row,IC50 [µM],Compound
1,1 to 20,"Cn1nc2ccc(OCc3ccccn3)cc2c1C(=O)NC(CO)c1ccccn1 (single isomer, unassigned) [Cpd 221 - En1]"
2,1 to 20,"Cn1nc2ccc(OCc3ccccn3)cc2c1C(=O)NC(CO)c1ccccn1 (single isomer, unassigned) [Cpd 221 - En2]"
3,> 20,"Cn1nc2ccc(OCc3ccccn3)cc2c1C(=O)NC(CCO)c1ccc(F)cc1 (single isomer, unassigned) [Cpd 223 - En1]"
4,> 20,"Cn1nc2ccc(OCc3ccccn3)cc2c1C(=O)NC(CCO)c1ccc(F)cc1 (single isomer, unassigned) [Cpd 223 - En2]"
5,< 1,"Cn1nc2ccc(OCc3ccccn3)cc2c1C(=O)NC(CO)CC(F)(F)F (single isomer, unassigned) [Cpd 226-En1]"
6,> 20,"Cn1nc2ccc(OCc3ccccn3)cc2c1C(=O)NC(CO)CC(F)(F)F (single isomer, unassigned) [Cpd 226-En2]"
7,< 1,"Cn1nc2ccc(OCc3ccccn3)cc2c1C(=O)NC(CO)C(C(F)(F)F)C(F)(F)F (single isomer, unassigned) [Cpd 227 - En1]"
8,> 20,"Cn1nc2ccc(OCc3ccccn3)cc2c1C(=O)NC(CO)C(C(F)(F)F)C(F)(F)F (single isomer, unassigned) [Cpd 227 - En2]"
9,< 1,"Cn1nc2ccc(OCc3ccccn3)cc2c1C(=O)NC(CO)CC(F)F (single isomer, unassigned) [Cpd 228 - En1]"
10,> 20,"Cn1nc2ccc(OCc3ccccn3)cc2c1C(=O)NC(CO)CC(F)F (single isomer, unassigned) [Cpd 228 - En2]"
11,1 to 20,"CN(C)CC(C)(CC(F)F)NC(=O)c1c2cc(OCc3ccccn3)ccc2nn1C (single isomer, unassigned) [Cpd 229 - En1, N-[1-(dimethylamino)-4,4-difluoro-2-methylbutan-2-yl]-2-methyl-5-[(pyridin-2-yl)methoxy]-2H-indazole-3-carboxamide]"
12,> 20,"CN(C)CC(C)(CC(F)F)NC(=O)c1c2cc(OCc3ccccn3)ccc2nn1C (single isomer, unassigned) [Cpd 229 - En2, N-[1-(dimethylamino)-4,4-difluoro-2-methylbutan-2-yl]-2-methyl-5-[(pyridin-2-yl)methoxy]-2H-indazole-3-carboxamide]"
13,> 20,"COCC(C)(CC(F)F)NC(=O)c1c2cc(OCc3ccccn3)ccc2nn1C (single isomer, unassigned) [Cpd 230 - En1]"
14,1 to 20,"COCC(C)(CC(F)F)NC(=O)c1c2cc(OCc3ccccn3)ccc2nn1C (single isomer, unassigned) [Cpd 230 - En2]"
15,1 to 20,"CC(=O)C(C)(CO)NC(=O)c1c2cc(OCc3ccccn3)ccc2nn1C (single isomer, unassigned) [Cpd 232 - En1]"
16,< 1,"CC(=O)C(C)(CO)NC(=O)c1c2cc(OCc3ccccn3)ccc2nn1C (single isomer, unassigned) [Cpd 232 - En2]"
17,> 20,"Cn1nc2ccc(OCc3ccccn3)cc2c1C(=O)NC1(CO)CC1(F)F (single isomer, unassigned) [Cpd 235 - En1, N-[2,2-difluoro-1-(hydroxymethyl)cyclopropyl]-2-methyl-5-[(pyridin-2-yl)methoxy]-2H-indazole-3-carboxamide]"
18,1 to 20,"Cn1nc2ccc(OCc3ccccn3)cc2c1C(=O)NC1(CO)CC1(F)F (single isomer, unassigned) [Cpd 235 - En2, N-[2,2-difluoro-1-(hydroxymethyl)cyclopropyl]-2-methyl-5-[(pyridin-2-yl)methoxy]-2H-indazole-3-carboxamide]"
